Patent US11110060B2, “Compositions and methods for delivering pharmaceutical agents” (Arizona Board of Regents on Behalf of the University of …, priority 2017, dated 2021)

Columns and labels:
[1] = tested on: chronic wounds in diabetic and healthy mice; assay: Wound healing in chronic wounds in diabetic (ob/ob) and healthy mice; format: in vivo
Experimental: FIG. 25: suramin treatment results in increased granulation tissue and wound contraction. A) control. B) 0.15 μg surmain-treated; C) 1.5 μg surmain-treated; and d) 15 μg surmain-treated.

[2] = tested on: human buccal cell line (T146); assay: In vitro viability of human buccal cell line (T146), dose-response for safety/toxicity; format: cell-based; conditions: dose-response of sodium suramin, FIG. 8
Description: FIG. 8: In vitro viability of human buccal cell line (T146): dose-response of sodium suramin for safety/toxicity.
Suramin alone is amorphous or liquid-crystalline (FIGS. 5-7) and is safe in a human cell line (FIG. 8).

[3] = mice, 0.15, 1.5 and 15 μg suramin-treated vs control, FIG. 25

In the case of `Cc1ccc(C(=O)Nc2ccc(S(=O)(=O)O)c3cc(S(=O)(=O)O)cc(S(=O)(=O)O)c23)cc1NC(=O)c1cccc(NC(=O)Nc2cccc(C(=O)Nc3cc(C(=O)Nc4ccc(S(=O)(=O)O)c5cc(S(=O)(=O)O)cc(S(=O)(=O)O)c45)ccc3C)c2)c1` [suramin], the granulation tissue [1, 3] is reported as “increased”, the wound contraction [1, 3] is reported as “increased” and the “wound healing relative to controls” value ([1]; ob/ob mice, suramin treatment at different concentrations, FIG. 24) is reported as “accelerated wound healing”. The “safety in a human cell line (in vitro viability)” value [2] was “safe”.
